Results reported in patent US20240425484A1, “INHIBITORS OF TYK2” (Atomwise Inc., priority 2023, published 2024).

These compounds were tested against T1, TYK2-JH2 (Homo sapiens, UniProt P29597) (assay: TYK2-JH2 HTRF binding assay (ligand efficiency)). Details: calculated (Equation 1) from IC50 of the TYK-JH2 binding assay.
T1 construct: TYK JH2 enzyme mix (ChemPartner: CP20210818A-BV); purchased ChemPartner CP20210818A-BV
Experimental: The following example describes the TYK2-JH2 HTRF binding assay used to determine the ligand efficiency of the TYK2 inhibitors.
To calculate ligand efficiency, Equation 1 is applied: […]
in which IC50 comes from the binding assay used to determine compound potency.
TYK JH2 enzyme mix (ChemPartner: CP20210818A-BV), tracer (ChemPartner: CP-0029472-051) and mAb Anti-6HIS Tb cryptate Gold (Cisbio: Cat No. 61HI2TLA) mix were prepared in assay buffer (10 mM MgCl2, 20 mM HEPES pH 7.5, 0.01% Triton X-100, 1 mM DTT). Compounds diluted in DMSO (Final Concentrations 0.1 to 0.000005 [μM]) and enzyme mix (0.5 nM Final Concentration) were added to 384 well plates, briefly centrifuged and incubated at room temperature for 10 minutes. After incubation, tracer mix (Tracer-35 nM final concentration); (MAb Anti-6HIS Tb cryptate Gold-0.5X final)) was added, briefly centrifuged then incubate at room temperature 60 minutes. After incubation, plates were read by Envision TR-FRET (Ex340/Em495/520) protocol (PerkinElmer-Envision 2104 multilabel plate reader).

T1 sequence (P29597 589-875 limits assumed): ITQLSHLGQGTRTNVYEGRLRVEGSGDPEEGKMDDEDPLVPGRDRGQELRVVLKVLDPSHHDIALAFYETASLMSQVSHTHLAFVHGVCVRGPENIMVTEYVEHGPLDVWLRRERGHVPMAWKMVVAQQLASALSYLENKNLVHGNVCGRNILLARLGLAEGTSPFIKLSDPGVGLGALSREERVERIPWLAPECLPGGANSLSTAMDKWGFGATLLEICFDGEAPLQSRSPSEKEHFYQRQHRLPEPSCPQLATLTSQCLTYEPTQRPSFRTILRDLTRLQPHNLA

| Structure (SMILES) | Ligand Efficiency |
| --- | --- |
| CC1(CNc2ccc(Nc3cc(Nc4ncccc4S(C)(=O)=O)ncn3)nc2)COC1 [Compound 36, N^4-(5-(((3-methyloxetan-3-yl)methyl)amino)pyridin-2-yl)-N^6-(3-(methylsulfonyl)pyridin-2-yl)pyrimidine-4,6-diamine] | ††† (†††: >0.39) |
| Cc1ccnc(Nc2cc(Nc3ccccc3P(C)(C)=O)ncn2)c1 [Compound 63, N^4-(2-(dimethylphosphoryl)phenyl)-N^6-(4-methylpyridin-2-yl)pyrimidine-4,6-diamine] | ††† (†††: >0.39) |
| CS(=O)(=O)c1cccnc1Nc1cc(Nc2ccc(NC3CC(F)(F)C3)cn2)ncn1 [Compound 37, N^4-(5-(3,3-difluorocyclobutylamino)pyridin-2-yl)-N^6-(3-(methylsulfonyl)pyridin-2-yl)pyrimidine-4,6-diamine] | ††† (†††: >0.39) |
| CC(c1ccc(Nc2cc(Nc3ncccc3S(C)(=O)=O)ncn2)nc1)N1CC(F)C1 (centres unmarked) [Compound 22, N^4-(5-(1-(3-fluoroazetidin-1-yl)ethyl)pyridin-2-yl)-N^6-(3-(methylsulfonyl)pyridin-2-yl)pyrimidine-4,6-diamine] | ††† (†††: >0.39) |
| CS(=O)(=O)c1ccccc1Nc1cc(Nc2ccc(NC3COC3)cn2)ncn1 [Compound 80, N^4-(2-(methylsulfonyl)phenyl)-N^6-(5-(oxetan-3-ylamino)pyridin-2-yl)pyrimidine-4,6-diamine] | † (†: <0.37) |
| C[C@@H](c1ccc(Nc2cc(Nc3ncccc3S(C)(=O)=O)ncn2)nc1)N1C[C@H]2COC[C@H]2C1 [Compound 25, N^4-(3-(methylsulfonyl)pyridin-2-yl)-N^6-(5-(1-((3aR,6aS)-tetrahydro-1H-furo[3,4-c]pyrrol-5 (3H)-yl)ethyl)pyridin-2-yl)pyrimidine-4,6-diamine] | ††† (†††: >0.39) |
| Cc1ccnc(Nc2cc(Nc3ccccc3C(N)=O)ncn2)n1 [Compound 58, 2-(6-(4-methylpyrimidin-2-ylamino)pyrimidin-4-ylamino)benzamide] | ††† (†††: >0.39) |
| Cc1cccc(Nc2cc(Nc3ccccc3S(C)(=O)=O)nc(N)n2)n1 [Compound 57, N^4-(6-methylpyridin-2-yl)-N^6-(2-(methylsulfonyl)phenyl)pyrimidine-2,4,6-triamine] | ††† (†††: >0.39) |
| Cn1cc(-c2ccnc(Nc3cc(Nc4ccc(NC5(C)COC5)cn4)ncn3)c2S(C)(=O)=O)cn1 [Compound 72, N^4-(4-(1-methyl-1H-pyrazol-4-yl)-3-(methylsulfonyl)pyridin-2-yl)-N^6-(5-(3-methyloxetan-3-ylamino)pyridin-2-yl)pyrimidine-4,6-diamine] | † (†: <0.37) |
| C[C@H]1CN(C)CCN1c1ccc(Nc2cc(Nc3ncccc3S(C)(=O)=O)ncn2)nc1 [Compound 20, (S)—N^4-(5-(2,4-dimethylpiperazin-1-yl)pyridin-2-yl)-N^6-(3-(methylsulfonyl)pyridin-2-yl)pyrimidine-4,6-diamine] | ††† (†††: >0.39) |
| Cc1cccnc1Nc1cc(Nc2ccccc2C(N)=O)ncn1 [Compound 68, 2-((6-((3-methylpyridin-2-yl)amino)pyrimidin-4-yl)amino)benzamide] | ††† (†††: >0.39) |
| Cc1cccc(Nc2cc(Nc3cnccc3C(N)=O)ncn2)n1 [Compound 61, 3-((6-((6-methylpyridin-2-yl)amino)pyrimidin-4-yl)amino) isonicotinamide] | ††† (†††: >0.39) |
| Cc1cccc(Nc2cc(Nc3ncccc3CS(C)(=O)=O)ncn2)n1 [Compound 71, N^4-(6-methylpyridin-2-yl)-N^6-(3-((methylsulfonyl)methyl)pyridin-2-yl)pyrimidine-4,6-diamine] | ††† (†††: >0.39) |
| Cc1cccc(Nc2cc(Nc3ccccc3C(N)=O)ncn2)n1 [Compound 46] | ††† (†††: >0.39) |
| C[C@H]1COCCN1c1ccc(Nc2cc(Nc3ccccc3S(C)(=O)=O)ncn2)nc1 [Compound 54, (S)—N^4-(5-(3-methylmorpholino)pyridin-2-yl)-N^6-(2-(methylsulfonyl)phenyl)pyrimidine-4,6-diamine] | † (†: <0.37) |
| CC(c1ccc(Nc2ncnc(Nc3ncccc3S(C)(=O)=O)c2F)nc1)N1CC2(COC2)C1 (centres unmarked) [Compound 75, N^4-(5-(1-(2-oxa-6-azaspiro[3.3]heptan-6-yl)ethyl)pyridin-2-yl)-5-fluoro-N^6-(3-(methylsulfonyl)pyridin-2-yl)pyrimidine-4,6-diamine] | † (†: <0.37) |

| Structure (SMILES) | Ligand Efficiency |
| --- | --- |
| CC(c1ccc(Nc2cc(Nc3ncccc3S(C)(=O)=O)ncn2)nc1)N1CC2(CC(F)C2)C1 (stereo in doubt) [Compound 10, N^4-(5-((1R)-1-(6-fluoro-2-azaspiro[3.3]heptan-2-yl)ethyl)pyridin-2-yl)-N^6-(3-(methylsulfonyl)pyridin-2-yl)pyrimidine-4,6-diamine] | ††† (†††: >0.39) |
| Cc1ccnc(Nc2cc(Nc3ccccc3C(N)=O)ncn2)c1 [Compound 45, 2-((6-((4-methylpyridin-2-yl)amino)pyrimidin-4-yl)amino)benzamide] | ††† (†††: >0.39) |
| CC1(Nc2ccc(Nc3cc(Nc4ncccc4S(C)(=O)=O)ncn3)nc2)COC1 [Compound 21, N^4-(5-((3-methyloxetan-3-yl)amino)pyridin-2-yl)-N^6-(3-(methylsulfonyl)pyridin-2-yl)pyrimidine-4,6-diamine] | ††† (†††: >0.39) |
| CS(=O)(=O)c1cccnc1Nc1cc(Nc2ccc3c(n2)CC[C@@H]3N2CC3(COC3)C2)ncn1 [Compound 9, N^4-((5S)-5-(2-oxa-6-azaspiro[3.3]heptan-6-yl)-6,7-dihydro-5H-cyclopenta[b]pyridin-2-yl)-N^6-(3-(methylsulfonyl)pyridin-2-yl)pyrimidine-4,6-diamine] | ††† (†††: >0.39) |
| COc1ccnc(Nc2cc(Nc3cccc(C)n3)ncn2)c1S(C)(=O)=O [Compound 65, N^4-(4-methoxy-3-(methylsulfonyl)pyridin-2-yl)-N^6-(6-methylpyridin-2-yl)pyrimidine-4,6-diamine] | ††† (†††: >0.39) |
| COc1ccc(Nc2cc(NC(=O)C3CC3)ncn2)c(C(N)=O)c1 [Compound 70, 2-((6-(cyclopropanecarboxamido)pyrimidin-4-yl)amino)-5-methoxy benzamide] | ††† (†††: >0.39) |
| CS(=O)(=O)c1ccccc1Nc1cc(Nc2ccc(N3CCOCC3)cn2)ncn1 [Compound 42, N^4-(2-(methylsulfonyl)phenyl)-N^6-(5-morpholinopyridin-2-yl)pyrimidine-4,6-diamine] | ††† (†††: >0.39) |
| CS(=O)(=O)c1cccnc1Nc1cc(Nc2ccc(C(=O)NC3CC(F)(F)C3)cn2)ncn1 [Compound 38, N-(3,3-difluorocyclobutyl)-6-(6-(3-(methylsulfonyl)pyridine-2-ylamino)pyrimidin-4-ylamino) nicotinamide] | ††† (†††: >0.39) |
| CS(=O)(=O)c1cccnc1Nc1cc(Nc2ncccc2F)ncn1 [Compound 64, N^4-(3-fluoropyridin-2-yl)-N^6-(3-(methylsulfonyl)pyridin-2-yl)pyrimidine-4,6-diamine] | ††† (†††: >0.39) |
| CC(NC1CC(F)(F)C1)c1ccc(Nc2cc(Nc3ncccc3S(C)(=O)=O)ncn2)nc1 (centres unmarked) [Compound 35, N^4-(5-(1-(3,3-difluorocyclobutylamino)ethyl)pyridin-2-yl)-N^6-(3-(methylsulfonyl)pyridin-2-yl)pyrimidine-4,6-diamine] | ††† (†††: >0.39) |
| Cc1cncc(Nc2cc(Nc3ccccc3C(N)=O)ncn2)n1 [Compound 49, 2-(6-(6-methylpyrazin-2-ylamino)pyrimidin-4-ylamino)benzamide] | ††† (†††: >0.39) |
| CC1(Nc2ccc(Nc3cc(Nc4ncccc4S(C)(=N)=O)ncn3)nc2)COC1 (centres unmarked) [Compound 73, N^4-(5-((3-methyloxetan-3-yl)amino)pyridin-2-yl)-N^6-(3-(S-methylsulfonimidoyl)pyridin-2-yl)pyrimidine-4,6-diamine] | ††† (†††: >0.39) |
| CS(=O)(=O)c1ccccc1Nc1cc(Nc2ccc3c(n2)CCCC3N2CC3(CCOCC3)C2)ncn1 (centres unmarked) [Compound 27, N^4-(5-(7-oxa-2-azaspiro[3.5]nonan-2-yl)-5,6,7,8-tetrahydroquinolin-2-yl)-N^6-(2-(methylsulfonyl)phenyl)pyrimidine-4,6-diamine] | † (†: <0.37) |
| CC1(Nc2cnc(Nc3cc(Nc4ncccc4S(C)(=O)=O)ncn3)cn2)COC1 [Compound 74, N^4-(5-(3-methyloxetan-3-ylamino)pyrazin-2-yl)-N^6-(3-(methylsulfonyl)pyridin-2-yl)pyrimidine-4,6-diamine] | ††† (†††: >0.39) |
| Cc1cccc(Nc2cc(Nc3cccnc3S(C)(=O)=O)ncn2)n1 [Compound 59, N^4-(6-methylpyridin-2-yl)-N^6-(2-(methylsulfonyl)pyridin-3-yl)pyrimidine-4,6-diamine] | ††† (†††: >0.39) |
| Cn1ccc(Nc2cc(Nc3ccccc3C(N)=O)ncn2)n1 [Compound 67, 2-((6-((1-methyl-1H-pyrazol-3-yl)amino)pyrimidin-4-yl)amino)benzamide] | ††† (†††: >0.39) |
